“And” between values parts separate entries of the source, which are not always exact repeats. Equal entries are not always repeated.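 Compound exposure: 48 hours, 5 concentrations, 96-well plates. GI50: concentration for 50% inhibition of growth. TGI: total growth inhibition.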
Legend:
Experiment in all cases: NCI anticancer screen, dose series, 48 h
[1] = system: SK-MEL-28 melanoma
[2] = system: M14 melanoma
[3] = system: U251 CNS
[4] = system: SK-MEL-5 melanoma
[5] = system: A549 NSCLC
[6] = system: MDA-MB-435
[7] = system: SW-620 colon
[8] = system: UO-31 renal

Row | Structure (SMILES) | TGI [1] [µM] | TGI [2] [µM] | TGI [3] | TGI [4] [µM] | TGI [5] | TGI [6] | TGI [7] [µM] | TGI [8] [µM] | GI50 [1] [µM] | GI50 [2] | GI50 [3] [µM] | GI50 [4] | GI50 [5] | GI50 [6] | GI50 [7] | GI50 [8]
1 | CN1CCc2ccccc2C1Cc1ccccc1NC(=O)c1sc2ccccc2c1Cl (configuration not stated) | > 100 | > 100 | > 100 µM | > 100 | > 100 µM | > 100 µM | > 100 | > 100 |  |  |  |  |  |  |  | 
2 | CCNCC(=O)Nc1ccc2c(c1)C(=O)c1ccc(NC(=O)CNCC)cc1C2=O | 19.2 | 12.5 | 5.3 µM | 59.3 | 14.6 µM | 6.18 µM | 12.8 | 8.9 |  |  |  |  |  |  |  | 
3 | COc1cc2c(/C=C3\C(=O)N(C)c4ccccc43)c[nH]c2cc1C | > 100 | > 100 | 29.6 µM | > 40 | > 66.8 µM | 12.1 µM | > 100 | > 62 | > 22.4 | 0.541 µM | 0.499 | 2.36 µM | 2.39 µM | 1.62 µM | 1.68 µM | 11.5 µM
4 | O=S(O)O.O=S(O)O.[Co].[NH2-].[NH2-].[NH2-].[NH2-] | > 100 | > 100 | > 100 µM | > 100 | > 100 µM | > 100 µM | > 100 | > 100 | > 100 | > 100 µM | > 100 | > 100 µM | > 100 µM | > 100 µM | > 100 µM | > 100 µM
5 | NC(=O)c1cn(C2CC(O)C(CO)O2)c2ncnc(N)c12 (configuration not stated) | > 83.1 | 22.6 | > 100 µM | 31.9 | 41.1 µM | > 100 µM | 20.6 | 18.5 | 7.28 | 3.12 µM | 17.7 | 5.42 µM | 5.2 µM | 2.42 µM | 2.58 µM | 1.84 µM
6 | O=c1[nH]c(-c2ccc(Cl)c(Cl)c2)cn1-c1ccc(Cl)cc1 | > 100 | > 100 | 42.8 µM | > 100 | 48 µM | > 100 µM | > 100 | 60.5 | 59.6 | 29.7 µM | 17.4 | 42.2 µM | 21.3 µM | 60 µM | 33.1 µM | 25.4 µM
7 | O=C1OC2(c3ccc(O)cc3Oc3cc(O)ccc32)c2cccc3cccc1c23 | 34.3 | 56.7 | 39.3 µM | 28 | 39.8 µM | 38 µM | 42.7 | > 100 | 17.2 | 22.3 µM | 18.1 | 14.6 µM | 19.7 µM | 19.1 µM | 16.5 µM | 17.1 µM
8 | CC(C)[C@@]12C[C@@H](OC(=O)C3CO3)[C@@](C)(O1)[C@@H]1CC[C@@H](C)[C@H]1[C@@H]2OC(=O)/C=C/c1ccccc1 (some centres not stated) | 37.9 | 88.5 | 44.3 µM | 30.2 | 49.5 µM | 38.3 µM | 39.3 | 5.57 | 18.4 | 24.4 µM | 18.7 | 16.5 µM | 20.4 µM | 18.4 µM | 18.5 µM | 1.76 µM
9 | OCc1ccc(-c2nc(-c3ccc4c(c3)OCO4)c(-c3ccccn3)[nH]2)cc1 | > 25 | > 25 | > 25 µM | > 25 | > 25 µM | > 25 µM | > 25 | > 25 | > 25 | > 25 µM | > 25 | > 20 µM | > 25 µM | > 25 µM | > 25 µM | > 23.6 µM
10 | CCOC(=O)Cc1csc(NC(=O)C(OC(=O)c2ccc(Cl)cc2)c2ccccc2)n1 (configuration not stated) | 69.2 | 52 | > 100 µM | 36 | > 100 µM | 75.6 µM | > 100 | > 100 | 25.2 | 22.1 µM | 45.3 | 18 µM | 47.1 µM | 28.1 µM | 48.4 µM | 47.1 µM
11 | CC[C@]12CN3CCc4c([nH]c5ccccc45)[C@@](C(=O)OC)(c4cc5c(cc4OC)N(C)[C@H]4[C@@](O)(C(=O)OC)[C@H](OC(C)=O)[C@]6(CC)C=CCN7CC[C@]54[C@@H]76)CC(C3)[C@H]1O2 (some centres not stated) | 93.1 | 25.1 | 34 µM and > 50 µM | 0.887 | > 100 µM | 0.0252 µM and 0.0878 µM | > 100 | > 88.5 |  | 0.239 µM | 0.137 | 0.0888 µM | 0.599 µM | 0.0161 µM | 0.155 µM | 1.83 µM
12 | Cc1cc(-c2nc3sc(C)cn3c2/C=N/N=C(N)N)c(C)s1 | 4.12 | 3.11 | 25.5 µM | 3.8 | 48.9 µM | 4.79 µM | 18.4 | > 100 | 2.02 | 1.7 µM | 11.2 | 1.89 µM | 21.5 µM | 2.13 µM | 3.33 µM | 32.7 µM
13 | COc1cc2c3c(n(CCCN=[N+]=[N-])c(=O)c2cc1OC)-c1ccc([N+](=O)[O-])cc1C3=O | > 100 | > 100 | > 100 µM | > 100 | > 100 µM | > 100 µM | > 100 | > 100 | > 100 | > 100 µM | > 100 | > 100 µM | > 100 µM | > 100 µM | 55.3 µM | 20 µM
14 | O=Cc1ccc(-c2ccc(-c3nc4ccccc4s3)cc2)o1 | > 100 | > 100 | > 100 µM | > 100 | > 100 µM | > 100 µM | > 100 | > 100 | > 100 | > 100 µM | 35.2 | 96.4 µM | > 100 µM | > 100 µM | 89 µM | > 100 µM
15 | COc1ccc2c(n1)Sc1nc3ccccc3nc1N2 | > 100 | > 100 | 52.7 µM | > 100 | > 100 µM | > 100 µM | > 100 | 89.1 |  |  |  |  |  |  |  | 
16 | Cn1cnc([N+](=O)[O-])c1S(=O)(=O)Oc1ccc(Cl)cc1 | 51.8 | 5.21 | 55.8 µM | 32.3 | > 100 µM | 36.2 µM | 3.29 | 8.75 | 19.2 | 2.36 µM | 16.6 | 15.7 µM | 58.2 µM | 16.2 µM | 1.69 µM | 2.36 µM

Row | Structure (SMILES) | TGI [1] [µM] | TGI [2] [µM] | TGI [3] | TGI [4] [µM] | TGI [5] | TGI [6] | TGI [7] [µM] | TGI [8] [µM] | GI50 [1] [µM] | GI50 [2] | GI50 [3] [µM] | GI50 [4] | GI50 [5] | GI50 [6] | GI50 [7] | GI50 [8]
17 | O=C(COc1ccccc1)NNc1ccccc1 | > 300 | 171 | > 300 µM | > 300 |  | > 300 µM | > 300 | > 300 | > 300 | 15.2 µM and 13.9 µM | 195 | 46.2 µM and 104 µM | 60.4 µM | 12.2 µM and 16.1 µM | 13.4 µM and 18.9 µM | 10.3 µM and 20.1 µM
18 | COc1cc2c3c(n(CCCN=[N+]=[N-])c(=O)c2cc1OC)-c1ccccc1C3=O | > 100 | 13.9 | 24.5 µM | 9.25 | > 100 µM | 83.9 µM | > 100 | > 100 | > 100 | 1.82 µM | 1.61 | 3.17 µM | 26.2 µM | 9.81 µM | 12 µM | > 100 µM
19 | COc1cc2c3c(n(CCCN=[N+]=[N-])c(=O)c2cc1OC)-c1ccc(F)cc1C3=O | > 100 | > 100 | 55.6 µM | 17.9 | > 100 µM | > 100 µM | > 100 | > 100 | 49.2 | 5.16 µM | 4.6 | 4.25 µM | 48 µM | 38.1 µM | 6.29 µM | 5.14 µM
20 | CCOc1ccc(-c2nc3ccc(-c4nc5ccc(N6CCN(C)CC6)cc5[nH]4)cc3[nH]2)cc1 | 2.13 | 2.08 | 1.05 µM | 1.42 | 3.13 µM and 3.35 µM | 2.8 µM | 1.17 | 7.7 | 0.77 | 0.264 µM | 0.155 | 0.0761 µM | 1.24 µM and 1.04 µM | 0.69 µM | 0.234 µM | 2.54 µM
21 | COc1cccc(S(=O)(=O)NC2=NCCN2C(=S)SN2CCn3c2nsc3=S)c1 | 74.2 | > 100 | 61.8 µM | > 100 | > 100 µM | > 100 µM | > 100 | 49.1 | 31.4 | 31.4 µM | 22 | 37.9 µM | > 100 µM | 37.3 µM | 34 µM | 23.3 µM
22 | COc1ccc(-c2cnc(-c3ccc(OC)cc3)n2-c2cc(OC)c(OC)c(OC)c2)cc1 | 92 | > 100 | 69.2 µM | 67.4 | 82.2 µM | > 100 µM | > 100 | 50 | 24.4 | 44.7 µM | 24.4 | 22.7 µM | 23.1 µM | 31.2 µM | > 100 µM | 18.2 µM
23 | COc1cc2c(cc1OC)[C@@H]1C(=O)c3ccc4c(c3O[C@@H]1CO2)C[C@H](C(C)C)O4 | > 58.2 | > 59.4 | > 38.2 µM | 12.9 | > 57.8 µM | > 36.7 µM | > 46.7 | 97.9 | 15.4 | 7.86 µM | 4.57 | 0.0375 µM | 0.759 µM | 4.06 µM | 9.05 µM | 3.75 µM
24 | COc1ccc(C2c3ccc4ccccc4c3Oc3ncn(CCCn4ccnc4)c(=N)c32)cc1OC (configuration not stated) | 3.5 | 3.83 | 7.69 µM | 3.11 | 13.8 µM | 4.06 µM | 9.24 | 16.1 | 1.79 | 1.98 µM | 2.36 | 1.66 µM | 3.75 µM | 1.99 µM | 2.73 µM | 3.75 µM
25 | COc1cccc(/C=N\NC(=O)c2ccncc2)c1O | > 100 | > 100 | > 100 µM | 29 | > 100 µM | > 100 µM | > 100 | 56.8 | 19.1 | 4.68 µM | 2.95 | 6.29 µM | 11 µM | 19.2 µM | 7.48 µM | 2.36 µM
26 | Nc1nc(-c2cccnc2)cc(-c2cc(-c3cccnc3)nc(N)n2)n1 | > 100 | > 100 | > 100 µM | > 100 | > 100 µM | > 100 µM | > 100 | > 100 |  |  |  |  |  |  |  | 
27 | COc1cc(OC)c(C(=O)/C=C/c2ccc(C#N)cc2)c(OC)c1 | 7.61 | 3.15 | 7.05 µM | 6.95 | > 50 µM | 6.69 µM | 7.22 | 6.26 | 1.92 | 1.07 µM | 1.81 | 1.97 µM | 1.85 µM | 1.32 µM | 1.84 µM | 1.29 µM
28 | O=C(Nc1ccc(Cl)c(C(F)(F)F)c1)Nc1ccc(-c2cccnc2)cc1N1CCC(CO)CC1 | 5.71 | 4.85 | 7.1 µM | 3.12 | 23.8 µM | 4.53 µM | 27.2 | > 100 | 2.22 | 1.93 µM | 2.41 | 1.63 µM | 3.45 µM | 1.91 µM | 2.76 µM | 2.43 µM
29 | Cc1[nH]c2ccccc2c1CO | 34.3 | 34.9 | 43.9 µM | 36.9 | > 100 µM | 36.6 µM | 28.4 | 31.7 | 16.6 | 16.4 µM | 21.2 | 18.1 µM | 38.3 µM | 16.8 µM | 15.1 µM | 10.9 µM
30 | COc1ccc(OC)c(N2CC(O)=C(c3nc4ccccc4s3)C2=N)c1 | > 100 | > 100 | > 100 µM | 46.6 | > 100 µM | > 100 µM | > 100 | > 100 | 49.5 | > 100 µM | 51.5 | 14.7 µM | 71.2 µM | 20.8 µM | 32.7 µM | 36.2 µM
31 | Nc1nc(Sc2ccc([N+](=O)[O-])c3nonc23)c2ncn(C3OC(CO)C(O)C3O)c2n1 (configuration not stated) | 26.6 | 8.15 | > 85.1 µM | > 22.4 | > 100 µM | > 57.1 µM | > 35 | 43.6 | 11.7 | 0.456 µM | 0.685 | 2.4 µM | 4.27 µM | 1.67 µM | 1.12 µM | 0.902 µM

— PubChem BioAssay (NCI)
